Data on 1 compound can be found in US7700788B2, “Hydroxymethyl furfural oxidation methods” (Battelle Memorial Institute, priority 2006, dated 2010).

The nature of the data set: Solubility of FDCA in acetic acid/water mixtures. The format is physicochemical.

In the case of `O=C(O)c1ccc(C(=O)O)o1` [FDCA], the Solubility is, setting by setting: (0 Vol % HOAc / 100 Vol % H2O, 25° C.) 0.086 wt %; (0 Vol % HOAc / 100 Vol % H2O, 70° C.) 0.327 wt %; (40 Vol % HOAc / 60 Vol % H2O, 25° C.) 0.153 wt %; (40 Vol % HOAc / 60 Vol % H2O, 70° C.) 0.779 wt %; (50 Vol % HOAc / 50 Vol % H2O, 25° C.) 0.173 wt %; (50 Vol % HOAc / 50 Vol % H2O, 70° C.) 0.746 wt %. Besides, the Solubility reads like this: (60 Vol % HOAc / 40 Vol % H2O, 25° C.) 0.171 wt %; (60 Vol % HOAc / 40 Vol % H2O, 70° C.) 0.596 wt %; (70 Vol % HOAc / 30 Vol % H2O, 25° C.) 0.143 wt %; (70 Vol % HOAc / 30 Vol % H2O, 70° C.) 0.592 wt %; (90 Vol % HOAc / 10 Vol % H2O, 25° C.) 0.138 wt %; (90 Vol % HOAc / 10 Vol % H2O, 70° C.) 0.458 wt %. For the same compound, the Solubility is, setting by setting: (100 Vol % HOAc / 0 Vol % H2O, 25° C.) 0.080 wt %; (100 Vol % HOAc / 0 Vol % H2O, 70° C.) 0.193 wt %. Besides, the “Solubility in 40/60 HOAc/H2O relative to pure water” value (40/60 HOAc/H2O versus pure water) is on record as “about twice the solubility in pure water”.
